Measurements as given in patent publication US12043601B2, “N-substituted-1H-1,2,4-triazole-3-carboxamides, analogues thereof, and methods of treatment using same” (THE REGENTS OF THE UNIVERSITY OF COLORADO, priority 2018, dated 2024).
In brackets after ≈: the same amount, converted by molar mass.

Assays:
[1] = target: DksA (Salmonella typhimurium, UniProt P0A1G5); assay: DksA-dependent livJ in vitro transcription; assay type: biochemical; conditions: livJ promoter; for IVT: concentration showing activity
DksA, sequence (P0A1G5 whole entry): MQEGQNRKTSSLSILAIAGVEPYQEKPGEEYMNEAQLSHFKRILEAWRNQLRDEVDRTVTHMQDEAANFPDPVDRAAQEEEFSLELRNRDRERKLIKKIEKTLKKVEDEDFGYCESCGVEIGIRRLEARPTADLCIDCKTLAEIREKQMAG
Procedure: To measure the potency of a compound in inhibition of DksA biological function, rpsMtranscripts in vitro was determined by non-radioactive in vitro transcription reactions with qPCR analysis with divergent compounds. Briefly, 5 nM pTIM-rpsMplasmid was mixed with […] of compounds in 10 μl reaction buffer (40 mM HEPES [pH 7.4], 2 mM MgCl2, 60 mM potassium glutamate, 0.05% NP-40, 200 μM ATP, 200 μM GTP, 200 μM CTP, 200 μM UTP, and 5 nM E. coli RNA polymerase holoenzyme (NEB, Ipswich, MA) with 5 μM DksA. The in vitro transcription was carried out at 37° C. for 10 min, and then terminated at 70° C. for 10 min. To remove template DNA after treated with DNaseI, DNA-free DNA Removal kit (ThermoFisher) was used according to manufacturer's direction. The resulting materials were used as templates to generate cDNA with 100 U MMLV reverse transcriptase (Promega), 0.45 μM gene specific primer, and 20 U RNase inhibitor (Promega). The amount of cDNA synthesized for 1 h at 42° C. was quantified by real-time PCR (qRT-PCR). The copy number of specific transcripts was calculated to the standard curve generated with known gene copy concentrations. The IC50 is the concentration at which the curve passes through the 50% inhibition level. Standard deviation was calculated from 3 independent experiments.
The compounds were initially tested at 0.1 μM and 1 μM using as a target the promoter of the livJ gene that encodes a transporter of branch-chain amino acids (Table 4).

[2] = test system: Salmonella strain 14028s; assay: Minimum inhibitory concentration in EG minimal media; assay type: cell-based, Salmonella Typhimurium; conditions: 18 h; for Growth in EG at concentration tested 1 μg/ml / Growth in EG at concentration tested 2 μg/ml / Growth in EG at concentration tested 4 μg/ml / Growth in EG at concentration tested 8 μg/ml / Growth in EG at concentration tested 16 μg/ml / Growth in EG at concentration tested 32 μg/ml: EG minimal media, 37° C.; for MIC: Salmonella, 14028S
Procedure: DksA controls transcription of metabolic and virulence genes, allowing bacteria to both grow in minimum media and cause disease. Inhibition of bacterial growth in EG minimum media was used as an easy and reliable proxy of the DksA-dependent regulation of metabolism.
In a non-limiting example, wild-type Salmonella strain 14028s was grown overnight (18.5 h), and then diluted in EG minimal media to a density of about 10^5 CFU/mL. […] Each test tube was incubated at 37° C. with shaking for 18 h and bacterial growth was evaluated. The MIC value was determined as the lowest concentration of compound that inhibited growth.

[3] = Compound solubility; assay type: physicochemical; conditions: for Compound Solubility, 1 μM: solvent at 1 μM; for Compound Solubility, 10 μM: solvent at 10 μM; for Compound Solubility, 100 μM: solvent at 100 μM; for Compound Solubility, 1 mM: solvent at 1 mM; for Compound Solubility, 10 mM: solvent at 10 mM; for Compound Solubility, 16 mg/ml: solvent at 16 mg/ml

Compound | In vitro transcription assay result, 0.1 μM [1] | In vitro transcription assay result, 1 μM [1] | Growth in EG at concentration tested 1 μg/ml [2] | Growth in EG at concentration tested 2 μg/ml [2] | Growth in EG at concentration tested 4 μg/ml [2] | Growth in EG at concentration tested 8 μg/ml [2] | Growth in EG at concentration tested 16 μg/ml [2] | Growth in EG at concentration tested 32 μg/ml [2] | Compound Solubility, 1 μM [3] | Compound Solubility, 10 μM [3] | Compound Solubility, 100 μM [3] | Compound Solubility, 1 mM [3] | Compound Solubility, 10 mM [3] | Compound Solubility, 16 mg/ml [3] | IVT [1] | MIC [2]
COc1ccc(CNC(=O)c2nc[nH]n2)cc1OC [Compound 2, N-(3,4-dimethoxybenzyl)-1H-1,2,4-triazole-3-carboxamide] | no change | no change | + | + | + | + | + | + | water | water | water | water | water | DMSO | – | –
COc1cccc(CNC(=O)c2nc[nH]n2)c1OC [Compound 3, N-(2,3-dimethoxybenzyl)-1H-1,2,4-triazole-3-carboxamide] | no induction | no induction | + | + | + | + | – | – | water | water | water | water | water | DMSO | 0.1 µM | 32 µg/mL (≈ 122 µM)
COc1ccc(CNC(=O)c2nc[nH]n2)cc1 [Compound 4, N-(4-methoxybenzyl)-1H-1,2,4-triazole-3-carboxamide] | no change | no change | + | + | + | – | – | – | water | water | water | water | water | DMSO | – | 8 µg/mL (≈ 34.4 µM)
O=C(Nc1cccc(OC(F)(F)F)c1)c1nc[nH]n1 [Compound 5, N-(3-(trifluoromethoxy)phenyl)-1H-1,2,4-triazole-3-carboxamide] | no induction | no induction | + | + | + | + | + | + | water | water | water | water | DMSO | DMSO | 0.1 µM | –
O=C(NCc1ccc2c(c1)OCO2)c1nc[nH]n1 [Compound 6, N-(benzo[d][1,3]dioxol-5-ylmethyl)-1H-1,2,4-triazole-3-carboxamide] | no change | no change | + | + | – | – | – | – | water | water | water | water | water | DMSO | – | 8 µg/mL (≈ 32.5 µM)
COc1cccc(CNC(=O)c2nc[nH]n2)c1 [Compound 7, N-(3-methoxybenzyl)-1H-1,2,4-triazole-3-carboxamide] | no change | no change | + | + | + | – | – | – | water | water | water | water | water | DMSO | – | 8 µg/mL (≈ 34.4 µM)
O=C(NCc1ccc(OC(F)(F)F)cc1)c1nc[nH]n1 [Compound 8, N-(4-(trifluoromethoxy)benzyl)-1H-1,2,4-triazole-3-carboxamide] | no induction | no induction | + | + | + | + | + | + | water | water | water | water | DMSO | DMSO | 0.1 µM | –
O=C(NCc1cccc(OC(F)(F)F)c1)c1nc[nH]n1 [Compound 9, N-(3-(trifluoromethoxy)benzyl)-1H-1,2,4-triazole-3-carboxamide] | no induction | Repression | + | + | + | + | + | + | water | water | water | water | DMSO | DMSO | 0.1 µM | –
COc1ccc(CNC(=O)c2nc[nH]n2)cc1C(F)(F)F [Compound 10, N-(4-methoxy-3-(trifluoromethyl)benzyl)-1H-1,2,4-triazole-3-carboxamide] | no change | no induction | + | + | + | + | + | + | water | water | water | water | water | DMSO | 1 µM | –
O=C(Nc1ccc(C(F)(F)F)cc1)c1nc[nH]n1 [Compound 11, N-(4-(trifluoromethyl)phenyl)-1H-1,2,4-triazole-3-carboxamide] | good repression | good repression | + | + | + | + | + | + | water | water | water | DMSO | DMSO | DMSO | 0.1 µM | –
CC(C)(C)c1ccc(NC(=O)c2nc[nH]n2)cc1 [Compound 13, N-(4-(tert-butyl)phenyl)-1H-1,2,4-triazole-3-carboxamide] | no induction | no induction | + | + | + | + | + | + | water | water | water | water | DMSO | DMSO | 0.1 µM | –
